Reference: PubChem BioAssay (NCI)
“And” between values parts separate entries of the source, which are not always exact repeats. Equal entries are not always repeated.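 Step 1: Grow cells in 96-well plates. Step 2: Expose to compound for 48 hours at 5 concentrations. Step 3: Interpolate endpoints linearly; if unreached, use highest concentration. GI50 marks 50% less growth. TGI denotes the concentration required for complete inhibition of growth.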

Tested on: MDA-MB-468 breast
Experiment: growth of human tumour cells (NCI), 48 h

Structure (SMILES)	GI50	TGI
N#Cc1ccc(N2Cc3cc(Cl)ccc3OC3=C2C(=O)N(Cc2ccc(F)cc2)C3=O)cc1	595 nM	1.34 µM
C=C1C(=O)O[C@H]2[C@H]1CC/C(COC(=O)c1cccc3ccccc13)=C\CC[C@@]1(C)O[C@@H]21	1350 nM	3.13 µM
NS(=O)(=O)c1cccc(-c2cc3ccncc3cc2OCc2ccccc2)c1	4080 nM	16 µM
COc1cc2nc(Cl)nc(Nc3cccc(C4=Nc5c(N)nc(N)nc5NC(c5ccc(Cl)cc5)C4)c3)c2cc1OC (stereo not drawn)	1730 nM	3.49 µM
C/C(=C\CCc1ccsc1)CC/C=C(\C)CCCN1CCN(CCO)CC1	1610 nM	4.1 µM
C[C@@H](Oc1cc(-c2cnn(C3CC4(CNC4)C3)c2)cnc1N)c1c(Cl)ccc(F)c1Cl	2460 nM	9.35 µM
NC(Cc1ccc(O)cc1)C(=O)N/N=C/c1ccc(N(CCCl)CCCl)cc1 (stereo not drawn)	958 nM	10.5 µM
Nc1cccc2c1CN(C1CCC(=O)NC1=O)C2=O (stereo not drawn)	> 100000 nM	> 100 µM
O=c1[nH]cc(CO)c(=O)[nH]1	> 100000 nM	> 100 µM
COc1cc(OC)cc(C(=O)Nc2cccc(C#Cc3cccc4[nH]nc(N)c34)c2)c1	558 nM	3.92 µM
CCCCCCCCn1ccc2cc(NC(=O)Cn3cc(CN4CCC(C)CC4)nn3)ccc21	1620 nM	3.29 µM
Cc1ccc(C2NC(=S)N3C(c4ccc(C)cc4)NC(=S)N23)cc1 (stereo not drawn)	4620 nM	18.9 µM
COC(=O)c1c2c(c(C)[n+]([O-])c1C)C(=O)C=C(NCc1ccc(Br)cc1)C2=O	207 nM	0.816 µM
Cc1cc(NS(=O)(=O)c2ccc(NC(=O)COc3ccc(-c4cc5ccccc5[nH]4)cc3)cc2)no1	1610 nM	3.52 µM
O=C(Nc1ccc2cc3ccc(NC(=O)N4CCCCCC4)cc3nc2c1)N1CCCCCC1	1560 nM	3.03 µM
COc1ccccc1N(C(C)=O)C1=C(Cl)C(=O)c2ccccc2C1=O	487 nM	1.94 µM
CCCCCCCCCCCCNC(=O)[C@H]1CSC(c2cc(Br)cs2)N1 (stereo partly drawn)	890 nM	1.74 µM
O=C1c2ccccc2C(=O)c2c(NCCNCCO)ccc(NCCNCCO)c21	904 nM and 1300 nM and 1660 nM	2.45 µM and 2.92 µM and 3.84 µM
Oc1[nH]c2ccc(Cl)cc2c1/C=c1/ccc2c(c1)N=C(c1ccc(C(F)(F)F)cc1)N=2	1940 nM	4.57 µM
CCOC(=O)C1=C(C)NC(C)=C(C(=O)OCC)C1c1cc(Br)c(O)c(OC)c1	2880 nM	14.4 µM
CCOC(=O)c1c(C(F)(F)F)n([O-])c2ccc(Cl)cc2[n+]1=O	1790 nM	3.92 µM
O=S1CCN(Cc2ccc(-c3ccc4ncnc(Nc5ccc(OCc6ccccc6)c(F)c5)c4c3)o2)CC1	130 nM	1.19 µM

Structure (SMILES)	GI50	TGI
CCc1ccc(Oc2nccc(-c3c(-c4ccc(F)cc4)ncn3C3CCNCC3)n2)cc1	3710 nM	7.59 µM
O=[N+]([O-])c1ccc(Oc2cccc(C(F)(F)F)c2)c([N+](=O)[O-])c1	1640 nM	3.1 µM
O=C1c2cccc3cccc(c23)C(=O)N1CC#Cc1ccc2c3c(cccc13)C(=O)N(CCN1CCNCC1)C2=O	2190 nM	5.3 µM
Cc1ccc(-n2nnc3c(sc4ccccc43)c2=O)cc1	18500 nM	> 100 µM
Cc1ccc2c(n1)C(=O)C(Cl)=C(Nc1ccc(N3CCN(C)CC3)cc1)C2=O	1510 nM	3.13 µM
c1cc2ccc3cc2cc1CNCCOCCNCc1ccc2ccc(cc2c1)CNCCOCCNC3	> 100000 nM	> 100 µM
O=C(N/N=C/c1ccncc1)c1ccc(C(F)(F)F)nc1Nc1cccc(C(F)(F)F)c1	1350 nM	4.39 µM
Cc1ccc(NC(C(=O)c2ccccc2)c2ccccc2)cc1 (stereo not drawn)	2180 nM	8.85 µM
Cc1ccc(-c2c3c(N)nc(-c4ccncc4)nc3nc3c2c(C)nn3-c2ccccc2)cc1	> 37500 nM	> 37.5 µM
Nc1ncnc2c1nc(N)n2C1OC(CO)C(O)C1O (stereo not drawn)	220 nM	1.15 µM
COc1ccc(Oc2nc(Nc3ccc(N4CCOCC4)cc3)ncc2NC(=O)Nc2cc(OC)cc(OC)c2)cc1	3390 nM	11.7 µM
COc1ccc(C2=NNC(c3cc(Cc4ccc(O)c(C5CC(c6ccc(OC)cc6)=NN5)c4)ccc3O)C2)cc1 (stereo not drawn)	2970 nM	22.9 µM
O=[N+]([O-])c1ccc(N/N=C/c2ccccc2O)nc1	3120 nM	29.9 µM
O=c1c(-c2ccc3c(c2)OCO3)coc2c(CO)c(O)ccc12	1850 nM	5.37 µM
O=C(NC1CCNCC1)c1[nH]ncc1NC(=O)c1c(Cl)cccc1Cl	191 nM and 209 nM	0.434 µM and 0.525 µM
CS(=O)/C(C#N)=C\C=C\c1cccc(Cl)c1 (stereo not drawn)	1270 nM	4.28 µM
CCN1CCN(CC(=O)Nc2nc3ccc(NCc4ccc(C)cc4)cc3s2)CC1	2030 nM	8.96 µM
O=C1NC(=O)C(N2CCc3ccccc32)=C1c1ccc(Cl)cc1	> 25000 nM	> 25 µM
CC(=O)Nc1c(I)c(C(=O)O)c(I)c(N(C)C(C)=O)c1I	> 100000 nM	> 100 µM
Cc1cc(N2CCN(C)CC2)nc(N(CCNc2ccnc3cc(Cl)ccc23)Cc2ccco2)n1	2070 nM	6.1 µM
Cc1cc(Br)c2nsnc2c1[N+](=O)[O-]	1450 nM	3.24 µM
Cc1ccn2c(-c3csc(Nc4cccc(O)c4)n3)c(C)nc2c1	1770 nM	7.91 µM
